In patent publication US12421252B2, “Spiro (isobenzofuranazetidine) compounds for the treatment of autoimmune disease” (Hoffmann-La Roche Inc., priority 2020, dated 2025) one finds IC50 data, which are given here for nine compounds.

The target of this assay is T1, human TLR8 (Homo sapiens, UniProt Q9NR97).
T1 sequence (Q9NR97 27-1041): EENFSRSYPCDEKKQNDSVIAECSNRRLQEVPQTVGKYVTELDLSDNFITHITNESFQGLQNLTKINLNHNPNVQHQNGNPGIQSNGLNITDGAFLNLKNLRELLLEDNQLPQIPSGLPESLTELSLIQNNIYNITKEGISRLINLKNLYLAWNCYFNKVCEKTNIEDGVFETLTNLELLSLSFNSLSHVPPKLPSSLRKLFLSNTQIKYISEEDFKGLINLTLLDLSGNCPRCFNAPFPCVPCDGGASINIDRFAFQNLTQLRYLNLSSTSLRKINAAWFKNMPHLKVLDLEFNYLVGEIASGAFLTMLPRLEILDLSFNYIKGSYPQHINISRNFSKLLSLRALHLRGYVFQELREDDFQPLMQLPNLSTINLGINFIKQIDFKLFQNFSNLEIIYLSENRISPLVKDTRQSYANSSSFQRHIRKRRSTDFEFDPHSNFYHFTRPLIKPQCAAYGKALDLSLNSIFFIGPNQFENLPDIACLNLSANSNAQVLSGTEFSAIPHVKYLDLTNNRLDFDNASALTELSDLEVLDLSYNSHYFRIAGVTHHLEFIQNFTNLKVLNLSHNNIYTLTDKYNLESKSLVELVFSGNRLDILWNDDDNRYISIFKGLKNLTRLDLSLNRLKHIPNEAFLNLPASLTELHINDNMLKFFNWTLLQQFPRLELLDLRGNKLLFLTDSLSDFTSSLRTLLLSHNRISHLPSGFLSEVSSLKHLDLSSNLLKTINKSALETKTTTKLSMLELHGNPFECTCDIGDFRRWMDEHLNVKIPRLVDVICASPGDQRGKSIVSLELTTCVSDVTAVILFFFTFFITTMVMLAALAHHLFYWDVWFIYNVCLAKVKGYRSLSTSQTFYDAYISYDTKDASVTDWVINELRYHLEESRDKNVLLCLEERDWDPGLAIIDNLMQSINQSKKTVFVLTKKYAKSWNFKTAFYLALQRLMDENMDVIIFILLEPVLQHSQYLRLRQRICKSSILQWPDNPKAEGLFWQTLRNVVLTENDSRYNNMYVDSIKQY
The assay can be described thus: HEK293-Blue-hTLR-8 cells assay. The following applies: HEK293-Blue-hTLR8 cells, R848 stimulation, 20 hrs, SEAP reporter; read-out: HEK/hTLR8 IC50. Type of assay: cell-based. An excerpt: HEK293-Blue-hTLR-8 cells assay:
A stable HEK293-Blue-hTLR-8 cell line was purchased from InvivoGen (Cat. #: hkb-htlr8, San Diego, California, USA). These cells were originally designed for studying the stimulation of human TLR8 by monitoring the activation of NF-κB. A SEAP (secreted embryonic alkaline phosphatase) reporter gene was placed under the control of the IFN-β minimal promoter fused to five NF-κB and AP-1-binding sites. The SEAP was induced by activating NF-κB and AP-1 via stimulating HEK-Blue hTLR8 cells with TLR8 ligands. Therefore the reporter expression was declined by TLR8 antagonist under the stimulation of a ligand, such as R848, for incubation of 20 hrs. The cell culture supernatant SEAP reporter activity was determined using QUANTI-Blue™kit (Cat. #: rep-qb1, Invivogen, San Diego, Ca, USA) at a wavelength of 640 nm, a detection medium that turns purple or blue in the presence of alkaline phosphatase.
HEK293-Blue-hTLR8 cells were incubated at a density of 250,000˜450,000 cells/mL in a volume of 170 μL in a 96-well plate in Dulbecco's Modified Eagle's medium (DMEM) containing 4.5 g/L glucose, 50 U/mL penicillin, […], […], 2 mM L-glutamine, 10% (v/v) heat-inactivated fetal bovine serum with addition of 20 μL test compound in a serial dilution in the presence of final DMSO at 1% and 10 μL of 60 uM R848 in above DMEM, perform incubation under 37° C. in a CO2 incubator for 20 hrs. Then 20 μL of the supernatant from each well was incubated with 180 μL Quanti-blue substrate solution at 37° C. for 2 hrs and the absorbance was read at 620-655 nm using a spectrophotometer. The signaling pathway that TLR8 activation leads to downstream NF-κB activation has been widely accepted, and therefore similar reporter assay was modified for evaluating TLR8 antagonist.
As for `[2H]c1ccc2c(N3C[C@H](CN4CC5(C4)OCc4cc(N6CC(C)(N)C6)cnc45)O[C@H](C)C3)ccc(C#N)c2n1` [Example 21, 5-[(2S,6R)-2-[[3-(3-amino-3-methyl-azetidin-1-yl)spiro[5H-furo[3,4-b]pyridine-7,3′-azetidine]-1′-yl]methyl]-6-methyl-morpholin-4-yl]-2-deuterio-quinoline-8-carbonitrile], the IC50 came to 0.017 µM.
Take `C[C@@H]1CN(c2ccc(C#N)n3ncc(F)c23)C[C@H](CN2CC3(C2)OCc2cc(N4CC5(CN(C)C5)C4)cnc23)O1` [Example 22, 3-fluoro-4-[(2R,6S)-2-methyl-6-[[3-(6-methyl-2,6-diazaspiro[3.3]heptan-2-yl)spiro[5H-furo[3,4-b]pyridine-7,3′-azetidine]-1′-yl]methyl]morpholin-4-yl]pyrazolo[1,5-a]pyridine-7-carbonitrile]: the IC50 is 0.064 µM.
In the case of `C[C@@H]1CN(c2ccc(C#N)n3ncc(F)c23)C[C@H](CN2CC3(C2)OCc2cc(N4CC(C)(N)C4)ncc23)O1` [Example 24, 4-[(2S,6R)-2-[[6-(3-amino-3-methyl-azetidin-1-yl)spiro[1H-furo[3,4-c]pyridine-3,3′-azetidine]-1′-yl]methyl]-6-methyl-morpholin-4-yl]-3-fluoro-pyrazolo[1,5-a]pyridine-7-carbonitrile] it was 0.059 µM; in that of `C[C@@H]1CN(c2ccc(C#N)n3nccc23)C[C@H](CN2CC3(C2)OCc2cc(N4CC(C)(N)C4)ncc23)O1` [Example 25, 4-[(2S,6R)-2-[[6-(3-amino-3-methyl-azetidin-1-yl)spiro[1H-furo[3,4-c]pyridine-3,3′-azetidine]-1′-yl]methyl]-6-methyl-morpholin-4-yl]pyrazolo[1,5-a]pyridine-7-carbonitrile], 0.12 µM.
With `C[C@@H]1CN(c2ccc(C#N)n3nccc23)C[C@H](CN2CC3(C2)OCc2cc(N4CC(C)(N)C4)cnc23)O1` [Example 26, 4-[(2S,6R)-2-[[3-(3-amino-3-methyl-azetidin-1-yl)spiro[5H-furo[3,4-b]pyridine-7,3′-azetidine]-1′-yl]methyl]-6-methyl-morpholin-4-yl]pyrazolo[1,5-a]pyridine-7-carbonitrile], the IC50 turned out to be 0.234 µM.
The figure for `[2H]c1ccc2c(N3C[C@H](CN4CC5(C4)OCc4cc(N6C[C@H]7NCCO[C@@H]7C6)ncc45)O[C@H](C)C3)ccc(C#N)c2n1` [Example 28, 5-[(2S,6R)-2-[[6-[(4aR,7aR)-3,4,4a,5,7,7a-hexahydro-2H-pyrrolo[3,4-b][1,4]oxazin-6-yl]spiro[1H-furo[3,4-c]pyridine-3,3′-azetidine]-1′-yl]methyl]-6-methyl-morpholin-4-yl]-2-deuterio-quinoline-8-carbonitrile] is 0.025 µM.
Take `[2H]c1ccc2c(N3C[C@H](CN4CC5(C4)OCc4cc(N6C[C@@H](N)[C@H](OC)C6)cnc45)O[C@H](C)C3)ccc(C#N)c2n1` [Example 31, 5-[(2S,6R)-2-[[3-[(3R,4R)-3-amino-4-methoxy-pyrrolidin-1-yl]spiro[5H-furo[3,4-b]pyridine-7,3′-azetidine]-1′-yl]methyl]-6-methyl-morpholin-4-yl]-2-deuterio-quinoline-8-carbonitrile]: the IC50 was determined as 0.03 µM.
The figure for `[2H]c1ccc2c(N3C[C@H](CN4CC5(C4)OCc4cc(N6CC(N)C6)ncc45)O[C@H](C)C3)ccc(C#N)c2n1` [Example 32, 5-[(2S,6R)-2-[[6-(3-aminoazetidin-1-yl)spiro[1H-furo[3,4-c]pyridine-3,3′-azetidine]-1′-yl]methyl]-6-methyl-morpholin-4-yl]-2-deuterio-quinoline-8-carbonitrile] is 0.022 µM; for `C[C@@H]1CN(c2ccc(C#N)n3ncc(F)c23)C[C@H](CN2CC3(C2)OCc2cc(N4CC(C)(N)C4)cnc23)O1` [Example 33, 4-[(2S,6R)-2-[[3-(3-amino-3-methyl-azetidin-1-yl)spiro[5H-furo[3,4-b]pyridine-7,3′-azetidine]-1′-yl]methyl]-6-methyl-morpholin-4-yl]-3-fluoro-pyrazolo[1,5-a]pyridine-7-carbonitrile] it is 0.024 µM.
